The results in this text go back to patent US20050113309A1, “Crystalline forms(2s)-n-5[amino(imino)methyl]-2-thienylmethyl-1-(2r)-2[(carboxymethyl) amino]-3,3-diphenylpropanoyl-2-pyrrolidinecarboxamide nh2o” (priority 2002, published 2005).

Each structure is given as a SMILES string. “Also recorded” adds a separate entry of the source.

Series [1] can be described thus: Stress stability test (storage at −20° C., 50° C., 70° C. for 4 weeks). The series is classed as physicochemical. As to conditions: for Discoloration / change in appearance: 4 weeks' storage; for Color / Stability compared with the amorphous form: stress stability test; for Color: temperature not given (change in appearance at 70° C.). As for the experimental part:
In order to compare physicochemical stability among the crystalline Form VI, the crystalline Form I, and the amorphous form prepared in Examples 7, 8, and Comparative Example 1, the stress stability test was conducted by placing their samples at the temperatures of −20° C., 50° C., and 70° C. for 4 weeks.

Series [2] can be described thus: Powder X-ray diffraction during moisture absorption and dehumidification (crystal form stability to relative humidity). As to conditions: moisture absorption / relative humidity 33-93%. Format: physicochemical. As for the experimental part: 40 mg of the above crystalline Form I was thinly coated onto a sample holder. And, immediately after the sample was dried under vacuum in the presence of P2O5, and after the sample was placed for moisture absorption at each relative humidity of 33%, 53%, 64%, 75%, and 93% for two days or more, respectively, the powder X-ray diffraction test was conducted on the sample according to the conditions represented in above Test example 1 to observe change of the crystalline formi during moisture absorption. While lowering the relative humidity, the same test was repeated to observe change of the crystalline form during dehumidification.
In order to obtain each relative humidity above, as shown in the table below, saturated aqueous solutions of salts were prepared, then placed in a desiccator, and the desiccator was sealed.
40 mg of the above crystalline Form IV was thinly coated onto a sample holder. Immediately after the sample was dried under vacuum in the presence of P2O5, and after the sample was placed for moisture absorption at each relative humidity of 33%, 53%, 64%, 75%, and 93% for two days or more, respectively, the powder X-ray diffraction test of the sample was conducted according to the conditions represented in Test example 1 above to observe change of the crystalline form during moisture absorption. While lowering the relative humidity, the same test was repeated to observe change of the crystalline form during dehumidification.
In order to obtain each relative humidity above, as shown in Table 3 of Test example 2, saturated aqueous solutions of salts were prepared and then placed in a desiccator, and the desiccator was sealed.

Take `N=C(N)c1ccc(CNC(=O)[C@@H]2CCCN2C(=O)[C@H](NCC(=O)O)C(c2ccccc2)c2ccccc2)s1` [Amorphous form, (2S)-N-5-[amino(imino)methyl]-2-thienylmethyl-1-(2R)-2-[(carboxymethyl)amino]-3,3-diphenylpropanoyl-2-pyrrolidinecarboxamide]: the “Residual rate after 4 weeks” value is recorded as 96% in series [1] (50° C., 4 weeks); 96% in series [1] (50° C., 4 weeks, listed as amorphous form); 87% in series [1] (70° C., 4 weeks); 87% in series [1] (70° C., 4 weeks, listed as amorphous form); 96% in series [1] (−20° C., 4 weeks); 96% in series [1] (−20° C., 4 weeks, listed as amorphous form). Further, the “Discoloration / change in appearance” value in series [1] (70° C.) is reported as “discoloration; also recorded: change in appearance”. Besides, the Color result in series [1] (4 weeks) is given as “Yellow”. Moreover, in series [1] (−20° C. and 50° C., 4 weeks), the Change in appearance result was “did not show any change in appearance”.

Consider `N=C(N)c1ccc(CNC(=O)[C@@H]2CCCN2C(=O)[C@H](NCC(=O)O)C(c2ccccc2)c2ccccc2)s1` [Form I, (2S)-N-5-[amino(imino)methyl]-2-thienylmethyl-1-(2R)-2-[(carboxymethyl)amino]-3,3-diphenylpropanoyl-2-pyrrolidinecarboxamide], for which the “Residual rate after 4 weeks” value in series [1] (50° C., 4 weeks) stood at 99%; in series [1] (70° C., 4 weeks), 100%; in series [1] (−20° C., 4 weeks), 99%. In series [1] (70° C.), the “Discoloration / change in appearance” value was “stable without discoloration”. Further, the “Stability compared with the amorphous form” value in series [1] (4 weeks) is listed as “remarkably superior stability over the amorphous form”. In series [1] (4 weeks), the Color entry is on record as “Ivory”.

As to `N=C(N)c1ccc(CNC(=O)[C@@H]2CCCN2C(=O)[C@H](NCC(=O)O)C(c2ccccc2)c2ccccc2)s1` [Form II, (2S)-N-5-[amino(imino)methyl]-2-thienylmethyl-1-(2R)-2-[(carboxymethyl)amino]-3,3-diphenylpropanoyl-2-pyrrolidinecarboxamide], in series [2], the “Change of crystal structure / crystalline form with relative humidity” value is given as “changed to the crystalline Form III”.

In the case of `N=C(N)c1ccc(CNC(=O)[C@@H]2CCCN2C(=O)[C@H](NCC(=O)O)C(c2ccccc2)c2ccccc2)s1` [Form IV, (2S)-N-5-[amino(imino)methyl]-2-thienylmethyl-1-(2R)-2-[(carboxymethyl)amino]-3,3-diphenylpropanoyl-2-pyrrolidinecarboxamide], the “Discoloration / change in appearance” value in series [1] (70° C.) is listed as “stable without discoloration”.

`N=C(N)c1ccc(CNC(=O)[C@@H]2CCCN2C(=O)[C@H](NCC(=O)O)C(c2ccccc2)c2ccccc2)s1` [Form V, (2S)-N-5-[amino(imino)methyl]-2-thienylmethyl-1-(2R)-2-[(carboxymethyl)amino]-3,3-diphenylpropanoyl-2-pyrrolidinecarboxamide]: the “Change of crystal structure / crystalline form with relative humidity” value in series [2] is given as “changed into the crystalline Form VI”.

Take `N=C(N)c1ccc(CNC(=O)[C@@H]2CCCN2C(=O)[C@H](NCC(=O)O)C(c2ccccc2)c2ccccc2)s1` [Form VI, (2S)-N-5-[amino(imino)methyl]-2-thienylmethyl-1-(2R)-2-[(carboxymethyl)amino]-3,3-diphenylpropanoyl-2-pyrrolidinecarboxamide]: the “Residual rate after 4 weeks” value in series [1] (50° C., 4 weeks) stood at 99%; in series [1] (70° C., 4 weeks) it was 100%; in series [1] (−20° C., 4 weeks) it was 101%. Also, the “Stability compared with the amorphous form” value in series [1] (4 weeks) is “remarkably superior stability over the amorphous form”. Moreover, in series [1] (4 weeks), the Color result is reported as “Ivory”. Further, in series [2], the “Change of crystal structure / crystalline form with relative humidity” value is recorded as “crystal structure is not changed under any relative humidity”.
